The record followed here is PubChem BioAssay AID489016 (The Scripps Research Institute Molecular Screening Center, 2010).

The test system of the assay is P. falciparum 3D7 in RBCs, 3H-hypoxanthine incorporation, 48 h. Kind of assay: P. falciparum blood-stage growth inhibition potency, dose response, M17LAP inhibitor project, cell-based, radiolabel, RBCs, powder sample, late stage (AID 489016).

For `CCCCOc1ccc(CC(=O)NO)cc1`, the IC50 (as a rule, the concentration at which inhibition is half-maximal) was 1700 nM.
